{"source": "paper PMC5479785", "about": "“Tandem malonate-based glucosides (TMGs) for membrane protein structural studies” (Scientific Reports, 2017)", "key": {"MelBSt [1]": {"molecular_target": "T1, MelBSt (Salmonella enterica, UniProt P30878)", "T1 construct": "gene melB; wild type, C-terminal 10-His tag, plasmid pK95ΔAHB/WT MelBSt/CH10; detergent extract of RSO vesicles of E. coli DW2", "T1 sequence (P30878 whole entry)": "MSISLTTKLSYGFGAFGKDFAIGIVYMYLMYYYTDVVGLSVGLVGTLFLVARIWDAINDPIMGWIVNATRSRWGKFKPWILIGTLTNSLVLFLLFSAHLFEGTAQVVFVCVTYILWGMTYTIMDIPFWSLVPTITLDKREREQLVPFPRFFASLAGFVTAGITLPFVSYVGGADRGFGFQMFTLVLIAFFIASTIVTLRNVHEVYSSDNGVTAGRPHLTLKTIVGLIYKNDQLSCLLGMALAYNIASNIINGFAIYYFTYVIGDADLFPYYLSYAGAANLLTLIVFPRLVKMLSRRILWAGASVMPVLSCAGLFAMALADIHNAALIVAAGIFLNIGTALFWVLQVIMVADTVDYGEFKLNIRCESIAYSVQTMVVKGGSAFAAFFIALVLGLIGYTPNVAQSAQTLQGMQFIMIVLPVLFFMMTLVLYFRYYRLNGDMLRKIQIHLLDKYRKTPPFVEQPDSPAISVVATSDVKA", "assay": "reversal of Trp to D2G FRET by displacement", "format": "biochemical", "conditions": "excess melibiose against 10 μM D2G, 100 mM KPi, 100 mM NaCl, pH 7.5, DDM; competitive"}, "MelBEc [2]": {"molecular_target": "T2, MelBEc (Escherichia coli, UniProt P02921)", "T2 construct": "gene melB; expressed in E. coli DW2 (ΔmelB ΔlacZY); detergent extract of RSO membrane vesicles", "T2 sequence (P02921 2-473)": "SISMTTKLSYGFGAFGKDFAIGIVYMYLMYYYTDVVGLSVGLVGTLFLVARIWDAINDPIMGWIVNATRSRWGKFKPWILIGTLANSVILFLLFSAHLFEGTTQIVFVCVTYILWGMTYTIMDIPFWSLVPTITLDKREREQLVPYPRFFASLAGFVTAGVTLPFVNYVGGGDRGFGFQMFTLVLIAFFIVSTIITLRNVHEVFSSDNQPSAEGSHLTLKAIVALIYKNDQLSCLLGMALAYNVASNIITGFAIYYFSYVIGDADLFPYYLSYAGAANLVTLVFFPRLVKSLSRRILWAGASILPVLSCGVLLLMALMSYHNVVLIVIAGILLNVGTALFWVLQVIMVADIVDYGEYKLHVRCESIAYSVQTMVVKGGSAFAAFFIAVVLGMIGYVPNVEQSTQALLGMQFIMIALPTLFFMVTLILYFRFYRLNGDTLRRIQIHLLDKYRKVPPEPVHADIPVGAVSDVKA", "assay": "reversal of Trp to D2G FRET by displacement", "format": "biochemical", "conditions": "excess melibiose against 10 μM D2G, 100 mM KPi, 100 mM NaCl, pH 7.5, TMG-A12 or TMG-A13; competitive"}, "MelBSt [3]": {"molecular_target": "T1, MelBSt", "assay": "Trp to D2G FRET in detergent extract of membrane vesicles", "format": "biochemical", "conditions": "10 μM D2G, 100 mM KPi, 100 mM NaCl, pH 7.5, DDM; fluorescent ligand"}, "MelBEc [4]": {"molecular_target": "T2, MelBEc", "assay": "Trp to D2G FRET in detergent extract of membrane vesicles", "format": "biochemical", "conditions": "10 μM D2G, 100 mM KPi, 100 mM NaCl, pH 7.5, TMG-A12 or TMG-A13; fluorescent ligand"}, "β2AR": {"molecular_target": "T3, β2AR (Homo sapiens, UniProt P07550)", "T3 construct": "gene ADRB2; expressed in Sf9 insect cells (baculovirus), purified in DDM", "T3 sequence (P07550 whole entry)": "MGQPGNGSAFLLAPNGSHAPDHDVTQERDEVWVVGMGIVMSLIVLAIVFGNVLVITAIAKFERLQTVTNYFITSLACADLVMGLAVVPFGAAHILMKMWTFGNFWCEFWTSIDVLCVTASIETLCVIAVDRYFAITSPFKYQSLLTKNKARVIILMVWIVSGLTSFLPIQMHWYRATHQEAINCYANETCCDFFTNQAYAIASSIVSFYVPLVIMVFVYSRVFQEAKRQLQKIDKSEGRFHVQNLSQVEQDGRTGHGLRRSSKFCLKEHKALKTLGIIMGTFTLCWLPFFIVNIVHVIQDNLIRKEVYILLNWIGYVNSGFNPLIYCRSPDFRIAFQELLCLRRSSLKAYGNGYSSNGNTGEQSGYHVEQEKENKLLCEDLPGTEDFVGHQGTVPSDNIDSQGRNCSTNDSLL", "assay": "radioligand binding, G-50 column separation", "conditions": "10 nM [3H]-DHA, 20 mM HEPES pH 7.5, 100 mM NaCl, 0.5 mg/mL BSA, DDM or TMG detergent; antagonist; labelled compound"}}}
{"smiles": "OC[C@H]1O[C@H](OC[C@H]2OC(O)[C@H](O)[C@@H](O)[C@@H]2O)[C@H](O)[C@@H](O)[C@H]1O", "note": "(some centres unmarked) [melibiose]", "values": [{"measurement": "FRET reversal", "setting": "MelBSt [1]", "result": "Upon addition of melibiose, the DDM-solubilized MelBSt gave a large reversal in the FRET signal"}, {"measurement": "FRET reversal", "setting": "MelBEc [2]", "result": "reversed by adding a non-fluorescent sugar substrate (i.e., melibiose)"}]}
{"smiles": "CN(C)c1cccc2c(S(=O)(=O)NCCS[C@@H]3O[C@H](CO)[C@H](O)[C@H](O)[C@H]3O)cccc12", "note": "[D2G, 2′-(N-dansyl)aminoalkyl-1-thio-β-D-galactopyranoside]", "values": [{"measurement": "Trp→D2G FRET", "setting": "MelBSt [3]", "result": "a functional MelBSt gives an increase in fluorescence intensity induced by Trp→ D^2G FRET"}, {"measurement": "Trp→D2G FRET", "setting": "MelBEc [4]", "result": "TMG-A12 or TMG-A13 resulted in a functional MelBEc as demonstrated by large changes in FRET signal"}]}
{"smiles": "CCCc1ccccc1OCC(O)CNC(C)C", "note": "(centres unmarked) [[3H]-dihydroalprenolol]", "values": [{"measurement": "[3H]-DHA binding", "setting": "β2AR", "result": "receptor stability was assessed via a ligand binding assay using the antagonist, [^3H]-dihydroalprenolol"}]}
